We go through four compounds from patent US5164190A, “Subsaturated transdermal drug delivery device exhibiting enhanced drug flux” (Theratech, Inc., priority 1990, dated 1992).

Where a name gives a salt, the structure may show the parent alone. Read-outs that look alike come from different tables or passages of the source.

The format of series [1] is in vitro ADME, human. As to the method:
(§1) The term "skin flux" intends the rate of transfer of drug across skin as measured by the method of Merritt and Cooper (J Controlled Release (1984) 1:161). The units of flux are preferably μg/cm^2 /hr.
The following examples further illustrate the invention and its unique characteristics. These examples are not intended to limit the invention in any manner. In the following examples in vitro steady state transdermal flux across human cadaver skin was determined using the method of Merritt and Cooper, supra. Unless otherwise indicated percentages and proportions are by volume.
Formulations of progesterone at varying concentrations were made by mixing progesterone with the indicated ingredients and applied to cadaver skin. The meanings of the abbreviations that appear in the table are: Gly=glycerine; GDO=glycerol dioleate; ML=methyl laurate; OA=oleic acid; GMO=glycerol monooleate.
Additional progesterone systems were formulated and tested as in Example 1. Abbreviations are as in Example 1. Progesterone was present at saturation in system 1 and below saturation in systems 2-6.
Formulations of the hydrophilic drugs oxybutynin HCl and mecamylamine HCl were prepared and tested as in Examples 1 and 2. The formulations of Table 3 containing oxybutynin HCl at 40 mg/ml were saturated and the formulations of Table 4 containing 80 mg/ml of mecamylamine HCl were saturated. All other systems were at drug concentrations below saturation.
[…]. The matrix containing 30% norethindrone acetate was saturated; all others were subsaturated.

Series [2] in a line: cumulative permeation at 24 hr through skin in vitro. It counts as in vitro ADME, human. To be noted: for Cumulative Permeation: 24 hr. As to the method:
as §1
The following examples further illustrate the invention and its unique characteristics. These examples are not intended to limit the invention in any manner. In the following examples in vitro steady state transdermal flux across human cadaver skin was determined using the method of Merritt and Cooper, supra. Unless otherwise indicated percentages and proportions are by volume. […]
[…]. The matrix containing 8% estradiol was saturated; the others were subsaturated.
The matrix containing 8% estradiol was saturated; the others were subsaturated.

On to `CCN(CC)CC#CCOC(=O)C(O)(c1ccccc1)C1CCCCC1` (stereo not shown) [Oxybutyrin, oxybutynin HCl], for which the Flux in series [1] (Table 3 system 1, 5 mg/ml, 40/53/5/2 EtOH/H2O/Gly/GMO, N=3) is 5.6 ± 0.9 μg/cm^2 /hr; in series [1] (Table 3 system 1, 10 mg/ml, 40/53/5/2 EtOH/H2O/Gly/GMO, N=6), 13.3 ± 2.6 μg/cm^2 /hr; in series [1] (Table 3 system 1, 20 mg/ml, 40/53/5/2 EtOH/H2O/Gly/GMO, N=12), 16.9 ± 5.2 μg/cm^2 /hr; in series [1] (Table 3 system 1, 40 mg/ml (saturated), 40/53/5/2 EtOH/H2O/Gly/GMO, N=4) it was 29.1 ± 11.2 μg/cm^2 /hr; in series [1] (Table 3 system 2, 5 mg/ml, 40/54/5/1 EtOH/H2O/Gly/GMO, N=3), 8.0 ± 1.4 μg/cm^2 /hr; in series [1] (Table 3 system 2, 10 mg/ml, 40/54/5/1 EtOH/H2O/Gly/GMO, N=6) it was 10.1 ± 3.3 μg/cm^2 /hr. Moreover, the Flux in series [1] (Table 3 system 2, 20 mg/ml, 40/54/5/1 EtOH/H2O/Gly/GMO, N=12) is 17.5 ± 5.1 μg/cm^2 /hr; in series [1] (Table 3 system 2, 40 mg/ml (saturated), 40/54/5/1 EtOH/H2O/Gly/GMO, N=5), 38.8 ± 18.9 μg/cm^2 /hr; in series [1] (Table 3 system 3, 5 mg/ml, 30/63/5/2 EtOH/H2O/Gly/GMO, N=3) it was 2.2 ± 0.2 μg/cm^2 /hr; in series [1] (Table 3 system 3, 10 mg/ml, 30/63/5/2 EtOH/H2O/Gly/GMO, N=9), 8.3 ± 3.8 μg/cm^2 /hr; in series [1] (Table 3 system 3, 20 mg/ml, 30/63/5/2 EtOH/H2O/Gly/GMO, N=12), 14.8 ± 6.1 μg/cm^2 /hr; in series [1] (Table 3 system 3, 40 mg/ml (saturated), 30/63/5/2 EtOH/H2O/Gly/GMO, N=6), 23.9 ± 10.0 μg/cm^2 /hr. In addition, the Flux in series [1] (Table 3 system 4, 5 mg/ml, 30/64/5/1 EtOH/H2O/Gly/GMO, N=3) was found to be 1.7 ± 0.3 μg/cm^2 /hr; in series [1] (Table 3 system 4, 10 mg/ml, 30/64/5/1 EtOH/H2O/Gly/GMO, N=6), 5.4 ± 2.5 μg/cm^2 /hr; in series [1] (Table 3 system 4, 20 mg/ml, 30/64/5/1 EtOH/H2O/Gly/GMO, N=15) it was 13.6 ± 5.2 μg/cm^2 /hr; in series [1] (Table 3 system 4, 40 mg/ml (saturated), 30/64/5/1 EtOH/H2O/Gly/GMO, N=6), 27.5 ± 13.1 μg/cm^2 /hr.

`CC(=O)[C@H]1CC[C@H]2[C@@H]3CCC4=CC(=O)CC[C@]4(C)[C@H]3CC[C@]12C` [progesterone]: the Flux came out at 2.12 ± 0.47 μg/cm^2 /hr in series [1] (Table 1 system 1, 75.0 mg/ml (saturated), 60/22.5/10/2.5/2.5/2.5 EtOH/H2O/Gly/GDO/ML/OA, N=8); 4.51 ± 1.37 μg/cm^2 /hr in series [1] (Table 1 system 2, 50 mg/ml, 60/22.5/10/2.5/2.5/2.5 EtOH/H2O/Gly/GDO/ML/OA, N=18); 5.52 ± 1.38 μg/cm^2 /hr in series [1] (Table 1 system 3, 25 mg/ml, 60/22.5/10/2.5/2.5/2.5 EtOH/H2O/Gly/GDO/ML/OA, N=3); 3.35 ± 2.18 μg/cm^2 /hr in series [1] (Table 1 system 4, 75 mg/ml (saturated), 60/22.5/10/2.5/2.5/2.5 EtOH/H2O/Gly/GMO/ML/OA, N=8); 7.63 ± 3.00 μg/cm^2 /hr in series [1] (Table 1 system 5, 50 mg/ml, 60/22.5/10/2.5/2.5/2.5 EtOH/H2O/Gly/GMO/ML/OA, N=18); 8.18 ± 0.90 μg/cm^2 /hr in series [1] (Table 1 system 6, 37.5 mg/ml, 60/22.5/10/2.5/2.5/2.5 EtOH/H2O/Gly/GMO/ML/OA, N=6). Further, the Flux in series [1] (Table 1 system 7, 25 mg/ml, 60/22.5/10/2.5/2.5/2.5 EtOH/H2O/Gly/GMO/ML/OA, N=18) stood at 6.37 ± 1.88 μg/cm^2 /hr; in series [1] (Table 1 system 8, 10 mg/ml, 60/22.5/10/2.5/2.5/2.5 EtOH/H2O/Gly/GMO/ML/OA, N=3) it was 1.84 ± 0.33 μg/cm^2 /hr; in series [1] (Table 2 system 1, 50 mg/ml (saturated), 60/22.5/10/2.5/2.5/2.5 EtOH/H2O/Gly/GDO/ML/OA, N=12), 6.01 ± 1.73 μg/cm^2 /hr; in series [1] (Table 2 system 2, 30 mg/ml, 60/28/10/1/1 EtOH/H2O/Gly/GMO/ML, N=3), 13.03 ± 3.35 μg/cm^2 /hr; in series [1] (Table 2 system 3, 25 mg/ml, 60/28/10/1/1 EtOH/H2O/Gly/GMO/ML, N=3) it was 12.98 ± 2.06 μg/cm^2 /hr; in series [1] (Table 2 system 4, 20 mg/ml, 60/28/10/1/1 EtOH/H2O/Gly/GMO/ML, N=9), 15.89 ± 6.81 μg/cm^2 /hr. Further, the Flux in series [1] (Table 2 system 5, 15 mg/ml, 60/28/10/1/1 EtOH/H2O/Gly/GMO/ML, N=12) was 13.13 ± 1.87 μg/cm^2 /hr; in series [1] (Table 2 system 6, 10 mg/ml, 60/28/10/1/1/1 EtOH/H2O/Gly/GMO/ML, N=5), 11.13 ± 1.98 μg/cm^2 /hr. The “flux at subsaturated concentrations versus at saturation” value in series [1] (Table 1 systems, except 8) was “significantly greater”. The “fluxes at concentrations below saturation versus at saturation” value in series [1] (Table 2 systems) was “significantly greater than at saturation”.

As to `C[C@]12CC[C@@H]3c4ccc(O)cc4CC[C@H]3[C@@H]1CC[C@@H]2O` [estradiol], the “Cumulative Permeation” value in series [2] (Table 7, 1% estradiol, acrylic adhesive matrix with 20% sorbitan monooleate, S.D. 1.40) is 11.36 μg/cm^2; in series [2] (Table 7, 2% estradiol, acrylic adhesive matrix with 20% sorbitan monooleate, S.D. 6.24), 28.31 μg/cm^2; in series [2] (Table 7, 3% estradiol, acrylic adhesive matrix with 20% sorbitan monooleate, S.D. 6.64), 40.88 μg/cm^2; in series [2] (Table 7, 4% estradiol, acrylic adhesive matrix with 20% sorbitan monooleate, S.D. 4.46), 44.94 μg/cm^2; in series [2] (Table 7, 6% estradiol, acrylic adhesive matrix with 20% sorbitan monooleate, S.D. 3.03) it was 22.56 μg/cm^2; in series [2] (Table 7, 8% estradiol (saturated), acrylic adhesive matrix with 20% sorbitan monooleate, S.D. 5.25) it was 12.93 μg/cm^2. The “Cumulative Permeation” value in series [2] (Table 8, 1% estradiol, acrylic adhesive matrix without permeation enhancer, S.D. 1.84) stood at 9.33 μg/cm^2; in series [2] (Table 8, 2% estradiol, acrylic adhesive matrix without permeation enhancer, S.D. 1.42) it was 16.55 μg/cm^2; in series [2] (Table 8, 3% estradiol, acrylic adhesive matrix without permeation enhancer, S.D. 2.16), 21.21 μg/cm^2; in series [2] (Table 8, 4% estradiol, acrylic adhesive matrix without permeation enhancer, S.D. 0.64), 16.11 μg/cm^2; in series [2] (Table 8, 6% estradiol, acrylic adhesive matrix without permeation enhancer, S.D. 0.27) it was 18.42 μg/cm^2; in series [2] (Table 8, 8% estradiol (saturated), acrylic adhesive matrix without permeation enhancer, S.D. 3.93), 9.20 μg/cm^2. Moreover, the “maximum permeation versus estradiol concentration” value in series [2] (matrices with sorbitan monolaurate, ointments EtOH/H2O/Gly/GMO/ML 20/60/5/7.5/7.5) was “maximum permeation was observed at estradiol concentrations below saturation”.

For `CC(C)NCC(O)COc1cccc2[nH]ccc12` (stereo not shown) [pindolol free base, pindolol], the “dependence of flux on drug concentration” value in series [1] (ointment and solid matrix systems) is recorded as “classic Fickian dependence of flux on drug concentration”.
